Results published in PMC6677754, “In silico design and optimization of selective membranolytic anticancer peptides” (Scientific Reports, 2019).
Peptide text beside a SMILES is read from it.

How the values were obtained:
[1] = test system: noncancer HDMEC primary cells (human dermal microvascular endothelial cells); assay: Cell viability assay (MTT); assay type: cell-based; conditions: Table S2; noncancer primary cells; MTT, 24 h; mean ± sd; N = 2 independent measurements with six technical replicates each (Figs S6-S8)
Description: (§1) 10% fetal bovine serum and 1% penicillin-streptomycin (Thermo Fisher Scientific, Waltham, MA, USA). The cultures were kept at 37°C in a 5% CO2 atmosphere incubator (Thermo Fisher Scientific, Waltham, MA, USA) and split every two to three days to new culture flasks. Cells no older than 20 passages were used for experiments.
(§2) For splitting, the cell culture media was aspirated, the cells were washed with 0.01 M phosphate buffered saline (PBS, Gibco, Thermo Fisher Scientific, Waltham, MA, USA) and trypsin-EDTA (trypsin - ethylene diamine tetraacetic acid, Fisher scientific, UK) was added to the cell layer to detach them from the flask surface. After incubation for 2 min at 37°C, cells were resuspended with an equal volume of DMEM media and centrifuged at 310 g for 5 min at 4°C. After removal of the supernatant the cells were resuspended in DMEM cell media and split into new cell culture flasks at a 1/3 to 1/5 ratio.
(§3) Determination of the anticancer peptides half effective concentration (EC50) was performed by a 3-(4,5-dimethylthiazol-2-yl)-2,5-diphenyltetrazolium bromide (MTT) assay, as described elsewhere21. Briefly, […] were seeded in each well of a 96-well plate and left to adhere and […]
(§4) sulfoxide (DMSO, Fisher Scientific, UK) at an intermediate concentration of 1 mM. The peptides were then diluted in a 2-fold dilution series starting at 100 μM with DMEM culture media. Cells were incubated with the peptide solutions for 24 h. After this time, the cell media was removed and the cells were incubated for 1 h with a 0.5 mg mL−1 MTT solution to allow enough time for formazan crystal formation (Sigma Aldrich, Steinheim, Germany). The supernatant was removed and 100 μL of DMSO were added into each well to resuspend the formazan crystals.
(§5) After manually shaking the plates to completely dissolve the crystals, the absorbance was measured at 540 nm in a Tecan Infinity M1000 spectrophotometer. The cell viability was determined based on the quantification of the color intensity in each culture well, considering the absorbance obtained by the control media without peptides as a 100% survival. The resultant sigmoidal curves were analyzed with the drc22 R package using a log-logistic model

[2] = test system: A549 lung adenocarcinoma cell line; assay: Cell viability assay (MTT); assay type: cell-based, human; conditions: Table S2; MTT, 24 h; mean ± sd; N = 2 independent measurements with six technical replicates each (Figs S6-S8); read-out: A549 EC50 /µM
Description: as §1, §2, §3, §4, §5

[3] = test system: MCF7 breast adenocarcinoma cell line; assay: Cell viability assay (MTT); assay type: cell-based, human; conditions: Table S2, 24 h, mean ± sd, N = 2 independent measurements with six technical replicates each (Figs S6-S8)
Description: as §1, §2, §3, §4, §5

human erythrocytes = assay: Hemolysis assay; assay type: cell-based; conditions: red cells of human, 1 h
Description: Human erythrocytes were freshly ordered at the Blutspende Zürich. Erythrocytes were washed 3 times with a […] phosphate buffered saline (PBS, Gibco, Thermo Fisher Scientific, Waltham, MA, USA) solution centrifuging at 800 g for 10 min or until the supernatant appeared clear to remove the blood plasma. A 5% v/v erythrocytes : PBS solution was prepared for direct use. For HC50 determination, peptides were dissolved in PBS at an intermediate concentration of 1 mM. A dilution series of the peptide from 200 to 6.25 μM was plated in a round-bottomed 96-well plate in triplicates, with a volume of 50 μL per well. PBS buffer and a solution of 0.1% Triton-X-100 (Fisher Chemical, Loughborough, UK) in PBS were employed as negative and positive controls, respectively. 50 μL of the 5% erythrocyte solution were added in each well and the plates were incubated at 37°C for 1 h. After this time, 100 μL PBS were added to each well and plates were centrifuged at 800 g for 10 min. 100 μL of the supernatant were transferred to a flat-bottomed 96-well plate and the absorbance was measured at 540 nm in a Tecan Infinity M1000 spectrophotometer plate reader. The hemolysis percentage was calculated, considering the absorbance values of the Triton and PBS wells as 100% and 0% hemolysis, respectively.
The resultant sigmoidal curves were analyzed with the drc22 R package using a log-logistic model with 3 fixed parameters to obtain the HC50 values. […]
NCI-60 screening procedure […]
Each peptide was tested in a 5-concentration assay, starting at 10^-4 M and diluting 10-fold to the lowest 10^-8 M concentration. The peptides were incubated for 48 h and the cell concentration was assayed by using the sulforhodamine B assay25 and optical density measurements. The growth inhibition (GI50) value24, measures the growth inhibitory power of the drug agent. The GI50 value is the concentration of the test drug for which the condition in Eq. S1 is met, where T is the optical density of the test well after a 48-h exposure to the peptide, T0 the optical density before applying the peptide drug and C the control optical density of a well where no peptide was applied.

Compound	EC50 [1]	EC50 [2]	EC50 [3]	Eryhtr. HC50 /µM (human erythrocytes)
CC[C@H](C)[C@H](NC(=O)[C@H](CC(C)C)NC(=O)[C@H](CCCCN)NC(=O)[C@H](Cc1ccccc1)NC(=O)[C@@H]1CCCN1C(=O)[C@H](CCCCN)NC(=O)[C@H](Cc1c[nH]cn1)NC(=O)[C@H](Cc1ccccc1)NC(=O)[C@H](Cc1c[nH]c2ccccc12)NC(=O)[C@@H](NC(=O)[C@H](CCCCN)NC(=O)[C@H](CC(C)C)NC(=O)[C@H](Cc1c[nH]cn1)NC(=O)[C@H](CCCNC(=N)N)NC(=O)[C@@H](NC(=O)[C@H](Cc1ccc(O)cc1)NC(=O)[C@@H](N)Cc1c[nH]cn1)[C@@H](C)CC)[C@@H](C)O)C(=O)NCC(=O)N[C@@H](CCCCN)C(=O)N[C@H](C(N)=O)C(C)C [Off2.4] (H-HYIRHLKTWFHKPFKLIGKV-NH2)	169 ± 28 µM	> 100 µM	> 100 µM	> 200 µM
CC[C@H](C)[C@H](NC(=O)[C@H](CC(C)C)NC(=O)[C@@H](N)CCCCN)C(=O)N[C@@H](Cc1c[nH]cn1)C(=O)N[C@@H](CCCNC(=N)N)C(=O)N[C@@H](CC(C)C)C(=O)N[C@@H](CCCCN)C(=O)N[C@H](C(=O)N[C@H](C(=O)N[C@@H](Cc1ccccc1)C(=O)N[C@@H](CCCCN)C(=O)N[C@@H](CCCCN)C(=O)N[C@H](C(=O)N[C@@H](Cc1c[nH]c2ccccc12)C(=O)N[C@@H](Cc1c[nH]cn1)C(=O)N[C@@H](Cc1ccccc1)C(=O)N[C@@H](CC(C)C)C(=O)NCC(=O)N[C@@H](Cc1c[nH]cn1)C(=O)N[C@@H](CC(C)C)C(N)=O)C(C)C)C(C)C)[C@@H](C)O [Off9] (H-KLIHRLKTVFKKVWHFLGHL-NH2)	22 ± 3 µM	22 ± 4 µM	18.9 ± 0.2 µM	41 ± 3 µM
CC[C@H](C)[C@H](NC(=O)[C@H](CCC(N)=O)NC(=O)[C@H](Cc1ccccc1)NC(=O)[C@H](C)NC(=O)[C@H](CCCCN)NC(=O)[C@H](CCCCN)NC(=O)[C@H](Cc1ccc(O)cc1)NC(=O)[C@H](Cc1c[nH]c2ccccc12)NC(=O)[C@@H](NC(=O)[C@H](CCCCN)NC(=O)[C@@H](NC(=O)[C@H](CCCCN)NC(=O)[C@H](CCCCN)NC(=O)[C@H](Cc1ccccc1)NC(=O)[C@@H](NC(=O)[C@@H](N)CCC(N)=O)[C@@H](C)CC)C(C)C)[C@@H](C)O)C(=O)N[C@@H](CC(C)C)C(=O)NCC(=O)N[C@@H](CCCNC(=N)N)C(=O)N[C@@H](CC(C)C)C(N)=O [Off2.6] (H-QIFKKVKTWYKKAFQILGRL-NH2)	21 ± 2 µM	12.4 ± 0.1 µM	9.3 ± 0.2 µM	> 100 µM
CC[C@H](C)[C@H](NC(=O)[C@H](CCCCN)NC(=O)[C@H](CCCCN)NC(=O)[C@H](CC(C)C)NC(=O)[C@H](CC(C)C)NC(=O)[C@@H](N)CCC(N)=O)C(=O)N[C@@H](CCCNC(=N)N)C(=O)N[C@H](C(=O)N[C@@H](Cc1c[nH]c2ccccc12)C(=O)N[C@@H](Cc1ccc(O)cc1)C(=O)N[C@@H](CCCNC(=N)N)C(=O)N[C@@H](CCCCN)C(=O)N[C@@H](C)C(=O)N[C@@H](Cc1c[nH]c2ccccc12)C(=O)N[C@@H](Cc1c[nH]cn1)C(=O)N[C@H](C(=O)N[C@@H](Cc1ccc(O)cc1)C(=O)NCC(=O)N[C@@H](CCCCN)C(=O)N[C@H](C(N)=O)C(C)C)C(C)C)[C@@H](C)O [Off2.2.9] (H-QLLKKIRTWYRKAWHVYGKV-NH2)	21 ± 2 µM	28 ± 3 µM	13 ± 1 µM	> 200 µM
CC[C@H](C)[C@H](NC(=O)[C@H](CCCCN)NC(=O)[C@@H]1CCCN1C(=O)[C@H](Cc1c[nH]c2ccccc12)NC(=O)[C@@H](NC(=O)[C@H](Cc1c[nH]cn1)NC(=O)[C@H](Cc1c[nH]c2ccccc12)NC(=O)[C@H](C)NC(=O)[C@H](CCCCN)NC(=O)[C@H](CCCCN)NC(=O)[C@@H](NC(=O)[C@H](Cc1c[nH]c2ccccc12)NC(=O)[C@@H](NC(=O)[C@H](Cc1c[nH]cn1)NC(=O)[C@H](CC(C)C)NC(=O)[C@H](CCC(N)=O)NC(=O)[C@H](CCCNC(=N)N)NC(=O)[C@@H](NC(=O)[C@H](CCCNC(=N)N)NC(=O)[C@@H](N)CCC(N)=O)[C@@H](C)CC)[C@@H](C)O)[C@@H](C)CC)[C@@H](C)CC)C(N)=O [Off2.10] (H-QRIRQLHTWIKKAWHIWPKI-NH2)	39.7 ± 0.3 µM	40 ± 2 µM	28.6 ± 0.1 µM	> 200 µM
CC[C@H](C)[C@H](NC(=O)[C@H](CCCCN)NC(=O)CNC(=O)[C@@H](NC(=O)[C@@H](NC(=O)[C@H](Cc1c[nH]cn1)NC(=O)[C@H](Cc1c[nH]c2ccccc12)NC(=O)[C@@H]1CCCN1C(=O)[C@H](CCCCN)NC(=O)[C@H](CCCCN)NC(=O)[C@H](CC(C)C)NC(=O)[C@H](Cc1ccccc1)NC(=O)[C@H](Cc1c[nH]cn1)NC(=O)[C@H](CCCNC(=N)N)NC(=O)[C@H](Cc1ccccc1)NC(=O)[C@H](CCCCN)NC(=O)[C@H](CCCCN)NC(=O)[C@H](Cc1ccc(O)cc1)NC(=O)[C@H](CC(C)C)NC(=O)[C@@H](N)[C@@H](C)O)C(C)C)C(C)C)C(N)=O [Off2.3] (H-TLYKKFRHFLKKPWHVVGKI-NH2)	167 ± 13 µM	> 100 µM	65 ± 3 µM	> 200 µM
CC[C@H](C)[C@H](NC(=O)[C@H](Cc1c[nH]cn1)NC(=O)[C@H](Cc1c[nH]c2ccccc12)NC(=O)[C@H](C)NC(=O)[C@H](CCCNC(=N)N)NC(=O)[C@H](CCCNC(=N)N)NC(=O)[C@H](CC(C)C)NC(=O)[C@H](Cc1c[nH]c2ccccc12)NC(=O)[C@@H](NC(=O)[C@H](CCCNC(=N)N)NC(=O)[C@@H](NC(=O)[C@H](CCCNC(=N)N)NC(=O)[C@H](CCCNC(=N)N)NC(=O)[C@H](CC(C)C)NC(=O)[C@H](Cc1ccc(O)cc1)NC(=O)[C@@H](N)CCC(N)=O)C(C)C)[C@@H](C)O)C(=O)N[C@@H](CC(C)C)C(=O)NCC(=O)N[C@@H](CCCCN)C(=O)N[C@H](C(N)=O)C(C)C [Off2.2.8] (H-QYLRRVRTWLRRAWHILGKV-NH2)	10.3 ± 0.3 µM	16.5 ± 0.2 µM	11 ± 0.2 µM	21 ± 1 µM
CC[C@H](C)[C@H](NC(=O)[C@H](CC(C)C)NC(=O)[C@@H](N)Cc1c[nH]cn1)C(=O)N[C@@H](Cc1c[nH]cn1)C(=O)N[C@@H](CCCNC(=N)N)C(=O)N[C@@H](CC(C)C)C(=O)N[C@@H](Cc1c[nH]cn1)C(=O)N[C@H](C(=O)N[C@@H](Cc1ccc(O)cc1)C(=O)N[C@@H](Cc1c[nH]c2ccccc12)C(=O)N[C@@H](Cc1c[nH]cn1)C(=O)N[C@@H](CCCCN)C(=O)N1CCC[C@H]1C(=O)N[C@@H](Cc1c[nH]c2ccccc12)C(=O)N[C@@H](Cc1c[nH]cn1)C(=O)N[C@@H](Cc1ccc(O)cc1)C(=O)N[C@@H](CC(C)C)C(=O)NCC(=O)N[C@@H](CCCCN)C(=O)N[C@@H](CC(C)C)C(N)=O)[C@@H](C)O [Off2.9] (H-HLIHRLHTYWHKPWHYLGKL-NH2)	135 ± 2 µM	> 100 µM	> 100 µM	> 200 µM
